Tests used:
Assay in all cases: relative viability (nuclei count vs DMSO), 5 days (fraction); higher = more cells survive
[1] = system: NCI-H1651
Procedure, shortened: (§1)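 Lung cancer cell lines in 1536-well plates got either a single drug or a fixed anchor-drug dose together with five library-drug doses (not always all listed) in √10 steps, by pin tool, on the day after seeding. Nuclei were counted after 5 days, and relative viability is the treated-to-vehicle ratio of nuclei counts. Values are medians of duplicate plates.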

[2] = system: NCI-H2405
Procedure, shortened: as §1

[3] = system: NCI-H460
Procedure, shortened: as §1

[4] = system: NCI-H1734
Procedure, shortened: as §1

[5] = system: NCI-H1395
Procedure, shortened: as §1

[6] = system: NCI-H2342
Procedure, shortened: as §1

[7] = system: COR-L23
Procedure, shortened: as §1

[8] = system: NCI-H1975
Procedure, shortened: as §1

[9] = system: NCI-H3122
Procedure, shortened: as §1

[10] = system: NCI-H2023
Procedure, shortened: as §1

[11] = system: NCI-H661
Procedure, shortened: as §1

[12] = system: A-427
Procedure, shortened: as §1

[13] = system: SW 1573
Procedure, shortened: as §1

[14] = system: LCLC-97TM1
Procedure, shortened: as §1

[15] = system: NCI-H838
Procedure, shortened: as §1

[16] = system: LU99A
Procedure, shortened: as §1

[17] = system: NCI-H23
Procedure, shortened: as §1

[18] = system: NCI-H2126
Procedure, shortened: as §1

[19] = system: ABC-1
Procedure, shortened: as §1

[20] = system: SK-MES-1
Procedure, shortened: as §1

[21] = system: ChaGo-K-1
Procedure, shortened: as §1

[22] = system: LK-2
Procedure, shortened: as §1

[23] = system: HARA
Procedure, shortened: as §1

[24] = system: LOU-NH91
Procedure, shortened: as §1

Molecule `Nc1cccc2c1CN(C1CCC(=O)NC1=O)C2=O` (stereo not given) [Lenalidomide] + COc1cc2c(Oc3ccc(NC(=O)C4(C(=O)Nc5ccc(F)cc5)CC4)cc3F)ccnc2cc1OCCCN1CCOCC1 [Foretinib] (partner 0.25 µM) has a relative viability ([1]; first compound 0.253 µM) of 0.837, a relative viability ([1]; first compound 0.8 µM) of 0.963 and a relative viability ([1]; first compound 2.53 µM) of 0.914. It also gave a relative viability ([1]; first compound 8 µM) of 0.804, a relative viability ([2]; first compound 0.253 µM) of 1.02 and a relative viability ([2]; first compound 0.8 µM) of 0.951. It also gave a relative viability ([2]; first compound 2.53 µM) of 1.11, a relative viability ([2]; first compound 8 µM) of 1.01 and a relative viability ([3]; first compound 0.253 µM) of 0.964. For the same molecule, the relative viability ([3]; first compound 0.8 µM) was 1.02, the relative viability ([3]; first compound 2.53 µM) was 1.14 and the relative viability ([3]; first compound 8 µM) was 1.07. It also gave a relative viability ([4]; first compound 0.253 µM) of 0.894, a relative viability ([4]; first compound 0.8 µM) of 0.776 and a relative viability ([4]; first compound 2.53 µM) of 0.932. For the same molecule, the relative viability ([4]; first compound 8 µM) was 0.809, the relative viability ([5]; first compound 0.253 µM) was 0.958 and the relative viability ([5]; first compound 0.8 µM) was 1.09. The relative viability ([5]; first compound 2.53 µM) was 1.11, the relative viability ([5]; first compound 8 µM) was 0.822 and the relative viability ([6]; first compound 0.253 µM) was 1.08. For the same molecule, the relative viability ([6]; first compound 0.8 µM) was 1.01, the relative viability ([6]; first compound 2.53 µM) was 1.11 and the relative viability ([6]; first compound 8 µM) was 0.898. For the same molecule, the relative viability ([7]; first compound 0.253 µM) was 0.897, the relative viability ([7]; first compound 0.8 µM) was 0.998 and the relative viability ([7]; first compound 2.53 µM) was 1.08. The relative viability ([7]; first compound 8 µM) was 1.15, the relative viability ([8]; first compound 0.253 µM) was 0.942 and the relative viability ([8]; first compound 0.8 µM) was 0.823. For the same molecule, the relative viability ([8]; first compound 2.53 µM) was 1.07, the relative viability ([8]; first compound 8 µM) was 1.14 and the relative viability ([9]; first compound 0.253 µM) was 0.98. For the same molecule, the relative viability ([9]; first compound 0.8 µM) was 1.04, the relative viability ([9]; first compound 2.53 µM) was 0.915 and the relative viability ([9]; first compound 8 µM) was 1.02. It also gave a relative viability ([10]; first compound 0.253 µM) of 0.89, a relative viability ([10]; first compound 0.8 µM) of 1.19 and a relative viability ([10]; first compound 2.53 µM) of 0.753. It also gave a relative viability ([10]; first compound 8 µM) of 0.931, a relative viability ([11]; first compound 0.253 µM) of 0.996 and a relative viability ([11]; first compound 0.8 µM) of 0.983. For the same molecule, the relative viability ([11]; first compound 2.53 µM) was 1.01, the relative viability ([11]; first compound 8 µM) was 0.994 and the relative viability ([12]; first compound 0.253 µM) was 1.11. The relative viability ([12]; first compound 0.8 µM) was 0.93, the relative viability ([12]; first compound 2.53 µM) was 1.13 and the relative viability ([12]; first compound 8 µM) was 1.11. It also gave a relative viability ([13]; first compound 0.253 µM) of 0.971, a relative viability ([13]; first compound 0.8 µM) of 1.15 and a relative viability ([13]; first compound 2.53 µM) of 0.95. The relative viability ([13]; first compound 8 µM) was 0.877, the relative viability ([14]; first compound 0.253 µM) was 0.906 and the relative viability ([14]; first compound 0.8 µM) was 0.991. For the same molecule, the relative viability ([14]; first compound 2.53 µM) was 1, the relative viability ([14]; first compound 8 µM) was 0.947 and the relative viability ([15]; first compound 0.253 µM) was 1.11. The relative viability ([15]; first compound 0.8 µM) was 0.965, the relative viability ([15]; first compound 2.53 µM) was 1.15 and the relative viability ([15]; first compound 8 µM) was 1.2. It also gave a relative viability ([16]; first compound 0.253 µM) of 0.831, a relative viability ([16]; first compound 0.8 µM) of 0.789 and a relative viability ([16]; first compound 2.53 µM) of 0.761. For the same molecule, the relative viability ([16]; first compound 8 µM) was 0.599, the relative viability ([17]; first compound 0.253 µM) was 0.926 and the relative viability ([17]; first compound 0.8 µM) was 1.13. For the same molecule, the relative viability ([17]; first compound 2.53 µM) was 0.847, the relative viability ([17]; first compound 8 µM) was 1.03 and the relative viability ([18]; first compound 0.253 µM) was 1.33. For the same molecule, the relative viability ([18]; first compound 0.8 µM) was 1.13, the relative viability ([18]; first compound 2.53 µM) was 1.39 and the relative viability ([18]; first compound 8 µM) was 1.14. The relative viability ([19]; first compound 0.253 µM) was 0.977, the relative viability ([19]; first compound 0.8 µM) was 1.19 and the relative viability ([19]; first compound 2.53 µM) was 1.14. The relative viability ([19]; first compound 8 µM) was 0.811, the relative viability ([20]; first compound 0.253 µM) was 0.944 and the relative viability ([20]; first compound 0.8 µM) was 0.991. For the same molecule, the relative viability ([20]; first compound 2.53 µM) was 1.02, the relative viability ([20]; first compound 8 µM) was 0.844 and the relative viability ([21]; first compound 0.253 µM) was 0.949. The relative viability ([21]; first compound 0.8 µM) was 0.873, the relative viability ([21]; first compound 2.53 µM) was 0.975 and the relative viability ([21]; first compound 8 µM) was 1.06. For the same molecule, the relative viability ([22]; first compound 0.253 µM) was 1.57, the relative viability ([22]; first compound 0.8 µM) was 1.17 and the relative viability ([22]; first compound 2.53 µM) was 1.24. It also gave a relative viability ([22]; first compound 8 µM) of 0.847, a relative viability ([23]; first compound 0.253 µM) of 0.846 and a relative viability ([23]; first compound 2.53 µM) of 0.856. For the same molecule, the relative viability ([23]; first compound 8 µM) was 0.955, the relative viability ([24]; first compound 0.253 µM) was 0.97 and the relative viability ([24]; first compound 0.8 µM) was 0.923. For the same molecule, the relative viability ([24]; first compound 2.53 µM) was 0.942 and the relative viability ([24]; first compound 8 µM) was 0.898.
